Values after ≈ are worked out from the molar mass of the structure shown. Like-named read-outs stand apart in the source and are kept apart here.
How the values were obtained:
[1] = Solubility determination of nilotinib (saturated solution, 24 h stirring, filtrate analysed by gravimetry); format: physicochemical; details: for solubility at 24 h: organic solvent or mixture, thermodynamic from solid
Procedure: A saturated solution of nilotinib was prepared in the respective solvent at the respective temperature with excess crystalline nilotinib and allowed to stir for 24 h, a suspension of nilotinib in the solvent, which was saturated with nilotinib, was obtained. The suspension was filtered through a 1 micrometer glass filter. Crystalline solubility was determined by analysis of the filtrate, which is the saturated solution, by gravimetry (weighing).

[2] = Metastability of the supersaturated nilotinib solution from the Solvent-Shift route (visual check for precipitation)
[3] = Glacial Acetic Acid, wt % of saturated solution
[4] = Methanol:Acetic Acid 9:1 (w:w), wt % of saturated solution
[5] = Methanol, wt % based on weight of the saturated solution

Work on `Cc1cn(-c2cc(NC(=O)c3ccc(C)c(Nc4nccc(-c5cccnc5)n4)c3)cc(C(F)(F)F)c2)cn1` [Nilotinib] yielded a solubility at 24 h ([1]; 25 °C, Glacial Acetic Acid, mg per ml saturated solution, read-out: Solubility at 25° C.) of 135 mg/mL (≈ 255 mM), a solubility at 24 h ([1]; 25 °C, Methanol:Acetic Acid 9:1 (w:w), mg per ml saturated solution, read-out: Solubility at 25° C.) of 6 mg/mL (≈ 11.3 mM) and a solubility at 24 h ([1]; 25 °C, Methanol, mg of nilotinib per ml saturated solution, read-out: Solubility at 25° C.) of 2.8 mg/mL (≈ 5.29 mM). The solubility at 24 h ([1]; 40 °C, Glacial Acetic Acid, mg per ml saturated solution, read-out: Solubility at 40° C.) was 233 mg/mL (≈ 440 mM), the “Solubility at 25° C.” value [1, 3] was 12.7 wt % and the “Solubility at 40° C.” value [1, 3] was 21.1 wt %. For the same molecule, the “Solubility at 40° C.” value ([1]; Methanol:Acetic Acid 9:1 (w:w), mg per ml saturated solution) was 8 mg/mL (≈ 15.1 mM), the “Solubility at 25° C.” value [1, 4] was 0.76 wt % and the “Solubility at 40° C.” value [1, 4] was 1.0 wt %. For the same molecule, the “Solubility at 40° C.” value ([1]; Methanol, mg of nilotinib per ml saturated solution) was 5.0 mg/mL (≈ 9.44 mM), the “Solubility at 25° C.” value [1, 5] was 0.36 wt % and the “Solubility at 40° C.” value [1, 5] was 0.66 wt %. For the same molecule, the “Time at which visible solids were observed” value ([2]; Example 1: 2.15 wt % nilotinib in 91.2:8.8 (w:w) methanol:acetic acid, 40° C., no polymer) was 7.5 h, the “Appearance of the control mixture (nilotinib weighed directly into the solvent mixture)” value ([2]; Example 1 control: 2.06 wt % nilotinib in 89.5:10.5 (w:w) methanol:acetic acid, 40° C.) was “visible slurry” and the “Time at which visible solids were observed” value ([2]; Example 3: 2.19 wt % nilotinib in 85.0:9.0:6.0 (w:w:w) methanol:acetic acid:PVP-VA64, 40° C.) was 4 h.

— patent US20230293439A1, “SPRAY DRYING OF SUPERSATURATED SOLUTIONS OF API WITH ACETIC ACID” (BEND RESEARCH, INC., priority 2020, published 2023)
